The target in one assay is T1, EGFR (d746-750) (Homo sapiens, UniProt P00533, DEL746-750).
T1 construct: purchased SignalChem E10-122JG
Kind of assay: Biochemical EGFR inhibition assay (Caliper mobility shift), EGFR (d746-750). As to conditions: read-out: Enz EGFR_Exon19-del746-750 IC50.

The target in a further assay is T2, EGFR L858R (Homo sapiens, UniProt P00533, L858R).
T2 construct: purchased SignalChem E10-122BG
Kind of assay: Biochemical EGFR inhibition assay (Caliper mobility shift), EGFR L858R. The conditions noted are these: read-out: Enz EGFR_L858R IC50.

The target of assay [1] is intracellular phosphorylation of EGFR (Tyr1068) in PC-9 cells (Ex19Del) (Homo sapiens, UniProt P00533, DEL746-750). Kind of assay: PC-9 pEGFR AlphaLISA assay. The class given is cell-based. As to conditions: 4 hours compound incubation, read-out: Ext pEGFR_PC-9 Ex19Del IC50.
[2] abbreviates: 1.0 mM ATP or ATP Km, room temperature (25° C.).

For 9 compounds, IC50 results are on record in US12662465B2, “EGFR inhibitors” (Blueprint Medicines Corporation, priority 2021, dated 2026).

Read-outs that look alike come from different tables or passages of the source.

T2 sequence (P00533 25-1210 L858R): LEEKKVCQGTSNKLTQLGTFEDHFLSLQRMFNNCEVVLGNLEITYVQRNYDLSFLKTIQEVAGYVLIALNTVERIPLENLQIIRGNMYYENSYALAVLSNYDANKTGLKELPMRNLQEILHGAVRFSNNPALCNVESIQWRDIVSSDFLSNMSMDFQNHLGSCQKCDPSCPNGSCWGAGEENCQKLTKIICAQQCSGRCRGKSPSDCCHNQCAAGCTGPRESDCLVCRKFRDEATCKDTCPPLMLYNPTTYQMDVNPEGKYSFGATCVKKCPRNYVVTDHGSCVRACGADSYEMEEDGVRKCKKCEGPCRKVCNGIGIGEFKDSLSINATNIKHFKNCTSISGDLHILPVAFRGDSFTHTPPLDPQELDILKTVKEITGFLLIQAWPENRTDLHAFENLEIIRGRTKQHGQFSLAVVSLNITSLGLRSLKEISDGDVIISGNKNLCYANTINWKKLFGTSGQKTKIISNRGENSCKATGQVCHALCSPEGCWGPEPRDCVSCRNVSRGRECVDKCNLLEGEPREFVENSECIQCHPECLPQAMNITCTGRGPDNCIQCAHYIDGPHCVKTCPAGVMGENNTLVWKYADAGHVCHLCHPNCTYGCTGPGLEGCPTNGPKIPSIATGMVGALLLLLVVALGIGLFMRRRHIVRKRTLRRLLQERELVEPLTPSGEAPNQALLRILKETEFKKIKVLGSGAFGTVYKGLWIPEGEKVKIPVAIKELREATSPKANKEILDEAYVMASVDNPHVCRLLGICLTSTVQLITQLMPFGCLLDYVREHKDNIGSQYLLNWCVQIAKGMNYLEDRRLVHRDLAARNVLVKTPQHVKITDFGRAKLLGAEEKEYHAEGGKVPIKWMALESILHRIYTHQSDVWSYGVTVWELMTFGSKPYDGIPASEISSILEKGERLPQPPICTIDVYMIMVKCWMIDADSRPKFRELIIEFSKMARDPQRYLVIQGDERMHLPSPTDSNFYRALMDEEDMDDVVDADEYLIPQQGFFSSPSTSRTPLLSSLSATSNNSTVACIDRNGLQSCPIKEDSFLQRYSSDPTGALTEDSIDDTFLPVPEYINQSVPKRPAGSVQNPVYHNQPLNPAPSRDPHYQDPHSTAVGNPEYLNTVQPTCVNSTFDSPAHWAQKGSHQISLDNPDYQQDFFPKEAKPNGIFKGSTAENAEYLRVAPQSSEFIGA
T1 sequence (P00533 with tags, fused parts or gaps DEL746-750 limits assumed): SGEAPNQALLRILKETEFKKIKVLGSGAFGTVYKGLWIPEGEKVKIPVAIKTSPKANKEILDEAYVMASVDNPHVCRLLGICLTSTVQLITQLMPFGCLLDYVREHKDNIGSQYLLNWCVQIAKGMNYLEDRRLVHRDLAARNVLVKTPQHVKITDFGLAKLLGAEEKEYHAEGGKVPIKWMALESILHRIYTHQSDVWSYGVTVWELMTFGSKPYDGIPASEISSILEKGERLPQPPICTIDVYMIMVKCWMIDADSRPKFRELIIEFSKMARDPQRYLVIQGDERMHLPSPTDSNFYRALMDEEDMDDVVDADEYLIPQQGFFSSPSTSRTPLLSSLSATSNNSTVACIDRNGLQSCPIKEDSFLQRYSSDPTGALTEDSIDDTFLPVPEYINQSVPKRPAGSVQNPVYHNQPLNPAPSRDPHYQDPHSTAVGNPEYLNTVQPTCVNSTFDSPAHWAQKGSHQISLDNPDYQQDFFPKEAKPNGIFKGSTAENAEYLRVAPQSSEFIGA
Sequence of intracellular phosphorylation of EGFR (Tyr1068) in PC-9 cells (Ex19Del) (P00533 with tags, fused parts or gaps DEL746-750): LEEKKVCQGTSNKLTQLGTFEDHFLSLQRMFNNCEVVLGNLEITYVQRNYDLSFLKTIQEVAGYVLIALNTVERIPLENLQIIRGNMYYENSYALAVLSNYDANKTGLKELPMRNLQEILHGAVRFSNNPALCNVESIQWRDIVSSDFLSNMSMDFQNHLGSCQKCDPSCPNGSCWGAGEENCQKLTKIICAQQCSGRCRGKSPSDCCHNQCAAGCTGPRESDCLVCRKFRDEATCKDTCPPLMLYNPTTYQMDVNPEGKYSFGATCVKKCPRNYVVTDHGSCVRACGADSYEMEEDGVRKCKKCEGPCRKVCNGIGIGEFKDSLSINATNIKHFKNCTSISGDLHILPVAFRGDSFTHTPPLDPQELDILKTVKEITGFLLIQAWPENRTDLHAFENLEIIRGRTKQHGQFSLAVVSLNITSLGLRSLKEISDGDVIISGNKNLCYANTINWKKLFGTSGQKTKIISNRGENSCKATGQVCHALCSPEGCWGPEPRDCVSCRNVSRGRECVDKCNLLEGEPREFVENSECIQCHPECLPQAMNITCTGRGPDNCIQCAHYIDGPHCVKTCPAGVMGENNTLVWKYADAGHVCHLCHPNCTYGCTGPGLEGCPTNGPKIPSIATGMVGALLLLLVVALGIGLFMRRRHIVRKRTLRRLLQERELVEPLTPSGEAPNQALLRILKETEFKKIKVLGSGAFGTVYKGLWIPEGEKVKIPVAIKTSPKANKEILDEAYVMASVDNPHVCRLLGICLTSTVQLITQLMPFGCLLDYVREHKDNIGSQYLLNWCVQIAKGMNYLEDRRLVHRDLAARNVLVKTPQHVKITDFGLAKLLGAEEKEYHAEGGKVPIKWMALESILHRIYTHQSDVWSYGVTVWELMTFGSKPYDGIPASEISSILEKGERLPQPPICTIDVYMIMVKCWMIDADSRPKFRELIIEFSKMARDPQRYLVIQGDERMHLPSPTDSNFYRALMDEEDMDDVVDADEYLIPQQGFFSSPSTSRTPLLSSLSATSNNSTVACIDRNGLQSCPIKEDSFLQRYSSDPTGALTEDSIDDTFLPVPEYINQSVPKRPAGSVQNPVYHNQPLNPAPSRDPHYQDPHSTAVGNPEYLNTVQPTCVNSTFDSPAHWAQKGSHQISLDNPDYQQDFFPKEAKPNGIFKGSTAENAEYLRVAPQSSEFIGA

What is called IC50 is the concentration needed to halve the response being measured. Consider `C[C@@H](Oc1cc(-c2cnn([C@@H](C)CO)c2)cc2ncnc(Nc3ccc4ncccc4c3F)c12)C1COC1` (single isomer, unassigned) [Example 121, (S)-2-(4-(4-((5-fluoroquinolin-6-yl)amino)-5-((R)-1-(oxetan-3-yl)ethoxy)quinazolin-7-yl)-1H-pyrazol-1-yl)propan-1-ol or (R)-2-(4-(4-((5-fluoroquinolin-6-yl)amino)-5-((R)-1-(oxetan-3-yl)ethoxy)quinazolin-7-yl)-1H-pyrazol-1-yl)propan-1-ol], for which the values for the IC50 (on EGFR (d746-750) (setting [2]); at EGFR L858R (setting [2]); in assay [1]) were under 10 nM, under 10 nM and at most 10 nM, respectively.

Consider `C[C@H](Oc1cc(-c2cnn(C)c2)cc2ncnc(Nc3ccc4ncccc4c3F)c12)[C@@H]1CCCN1C` (single isomer, unassigned) [Example 146], for which the results for the IC50 (on EGFR (d746-750) (setting [2]); at EGFR L858R (setting [2]); in assay [1]) were under 10 nM, under 10 nM and at most 10 nM, respectively.

As to `C[C@H](CN(C)C)Oc1cc(N2CCCS2(=O)=O)cc2ncnc(Nc3ccc4ncccc4c3F)c12` [Example 95, (R)-2-(5-((1-(dimethylamino)propan-2-yl)oxy)-4-((5-fluoroquinolin-6-yl)amino)quinazolin-7-yl)isothiazolidine 1,1-dioxide], the IC50 is under 10 nM on EGFR (d746-750), 10.1 to 50 nM at EGFR L858R and 10.1 to 50 nM in assay [1].

Take `C[C@H](CN(C)C)Oc1cc(N2CCn3cncc3C2)cc2ncnc(Nc3ccc4ncccc4c3F)c12` [Example 90, (R)-7-(5,6-dihydroimidazo[1,5-a]pyrazin-7(8H)-yl)-5-((1-(dimethylamino)propan-2-yl)oxy)-N-(5-fluoroquinolin-6-yl)quinazolin-4-amine]: the IC50 on EGFR (d746-750) is under 10 nM; at EGFR L858R it was 10.1 to 50 nM; in assay [1], at most 10 nM.

On to `C[C@H](Oc1cc(-c2cnn(C)c2)cc2ncnc(Nc3ccc4ncccc4c3F)c12)[C@@H]1CCCN1C` (single isomer, unassigned) [Example 148], for which the IC50 at EGFR (d746-750) (setting [2]) is 10.1 to 50 nM; at EGFR L858R (setting [2]) it was 10.1 to 50 nM; in assay [1] it was over 50.1 nM.

Take `C[C@H](CN(C)C)Oc1cc(N2CC3CC(C2)N3)cc2ncnc(Nc3ccc4ncccc4c3F)c12` [Example 150, 7-(3,6-diazabicyclo[3.1.1]heptan-3-yl)-5-(((R)-1-(dimethylamino)propan-2-yl)oxy)-N-(5-fluoroquinolin-6-yl)quinazolin-4-amine]: the IC50 (at EGFR (d746-750); on EGFR L858R; in assay [1]) was over 50.1 nM throughout.

`C[C@H](CN(C)C1CC1)Oc1cc(-c2cnn(C)c2)cc2ncnc(Nc3ccc4ncccc4c3F)c12` [Example 114, (R)-5-((1-(cyclopropyl(methyl)amino)propan-2-yl)oxy)-N-(5-fluoroquinolin-6-yl)-7-(1-methyl-1H-pyrazol-4-yl)quinazolin-4-amine]: the IC50 on EGFR (d746-750) is under 10 nM; at EGFR L858R, under 10 nM; in assay [1], at most 10 nM.

Turning to `C[C@H](CN(C)C)Oc1cc(-c2cnn(C)c2)cc2ncnc(Nc3ccc4ncccc4c3F)c12` (single isomer, unassigned) [Example 5, (R)-5-((1-(dimethylamino)propan-2-yl)oxy)-N-(5-fluoroquinolin-6-yl)-7-(1-methyl-1H-pyrazol-4-yl)quinazolin-4-amine or (S)-5-((1-(dimethylamino)propan-2-yl)oxy)-N-(5-fluoroquinolin-6-yl)-7-(1-methyl-1H-pyrazol-4-yl)quinazolin-4-amine], the IC50 at EGFR (d746-750) (setting [2]) is under 10 nM; on EGFR L858R (setting [2]), under 10 nM; in assay [1], at most 10 nM.

On to `C[C@H](Oc1cc(-c2cnn(C)c2)cc2ncnc(Nc3ccc4ncccc4c3F)c12)[C@@H]1CCCN1C` (single isomer, unassigned) [Example 145], for which the figures for the IC50 (at EGFR (d746-750) (setting [2]); at EGFR L858R (setting [2]); in assay [1]) were 10.1 to 50 nM, 10.1 to 50 nM and over 50.1 nM, respectively.
